Source: patent US7312330B2, “Bicycloheteroarylamine compounds as ion channel ligands and uses thereof” (Renovis, Inc., priority 2003, dated 2007)

Molecular target: hVR1 (Homo sapiens, UniProt Q8NER1)
Assay: Calcium imaging assay (Fura2) of VR1 antagonists, proton stimulation
Format: cell-based
Conditions: HEK 293 cells expressing hVR1; for % Inhibition @ 1 μM: calcium ion influx induced by proton stimulation (pH 5.7); for IC50: calcium ion influx induced by proton stimulation
Excerpt: VR1 protein is a heat-gated cation channel that exchanges about 10 calcium ions for every sodium ion resulting in neuronal membrane depolarization and elevated intracellular calcium ion levels. Therefore the functional activity of compounds at the VR1 receptor may be determined by measuring changes in intracellular calcium levels in 293 cells expressing capsaicin-insensitive VR1 receptor variants. A dual wavelength ratiometric dye, Fura2, was used as an indicator of relative levels of calcium ions in a 96 well format using a bench top scanning fluorometer with integrated fluidics and temperature control (Flex Station, Molecular Devices).
A dual wavelength ratiometric dye, Fura2, was used as an indicator of relative levels of [Ca2+] in a 96 well format using a bench top scanning fluorometer with integrated fluidics and temperature control (Flex Station, Molecular Devices).
HEK 293 cells expressing hVR1 were grown on PDL coated 96-well black-walled plates, in the presence of a DMEM medium containing 5% Penstrep, 5% Glutamax, 200 ug/mL Hygromycin, 5 μg/mL Blasticide and 10% heat inactivated FBS. Prior to assay, the cells were loaded with 5 μg/mL Fura2 in normal saline solution at 37° C. for 40 minutes. Cells were then washed with normal saline to remove the dye.
The assay consists of two stages; a pre-treatment phase followed by a treatment phase. In the pretreatment phase, 50 μl of a compound solution was added to the cells. Immediately following, 50 μl of the test compound in the presence of agonist (a saline solution plus 10 mM citric acid bufferd to pH 5.7 with HCl) was added. Fura2 was excited at […] to indicate relative calcium concentration. Changes in wavelength measurements were made throughout the course of the experiment in 4 second intervals over a period of 3 minutes. The fluorescence ratio from the excitations at […] was recorded for analysis. Responses were measured as peak fluorescence ratio after compound-agonist addition minus baseline fluorescence ratio prior to treatment and were calculated for each concentration tested using the SoftMaxPro software. Data was expressed as percentage inhibition calculated as follows: […]
A dose response curve was then determined, from which the ID50 of each compound was calculated.

Sequence of hVR1 (Q8NER1 whole entry): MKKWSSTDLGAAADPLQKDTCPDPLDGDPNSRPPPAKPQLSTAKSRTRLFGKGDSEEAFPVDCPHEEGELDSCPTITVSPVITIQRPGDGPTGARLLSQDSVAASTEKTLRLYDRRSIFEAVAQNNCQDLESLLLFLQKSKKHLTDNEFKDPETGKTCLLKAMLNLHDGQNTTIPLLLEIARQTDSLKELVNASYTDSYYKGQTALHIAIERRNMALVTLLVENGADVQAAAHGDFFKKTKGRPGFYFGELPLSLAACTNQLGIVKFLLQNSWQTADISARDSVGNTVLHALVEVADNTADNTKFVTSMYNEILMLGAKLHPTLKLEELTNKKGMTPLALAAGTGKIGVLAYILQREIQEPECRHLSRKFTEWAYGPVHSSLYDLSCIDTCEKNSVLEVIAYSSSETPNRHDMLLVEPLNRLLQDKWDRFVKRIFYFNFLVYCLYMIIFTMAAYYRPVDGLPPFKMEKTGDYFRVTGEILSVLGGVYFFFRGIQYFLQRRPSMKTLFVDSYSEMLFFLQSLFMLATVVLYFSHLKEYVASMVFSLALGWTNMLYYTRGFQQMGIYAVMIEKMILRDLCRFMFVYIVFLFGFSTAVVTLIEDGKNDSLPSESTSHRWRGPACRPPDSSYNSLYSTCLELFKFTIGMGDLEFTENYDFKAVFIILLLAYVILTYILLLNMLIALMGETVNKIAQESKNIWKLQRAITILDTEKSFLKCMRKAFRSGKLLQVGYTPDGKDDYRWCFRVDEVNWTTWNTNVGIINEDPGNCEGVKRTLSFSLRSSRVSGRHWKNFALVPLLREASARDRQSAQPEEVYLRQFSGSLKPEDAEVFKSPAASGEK

SMILES | IC50 [µM] | % Inhibition @ 1 μM
CN1CC(C)(C)c2ccc(Nc3ncnc4c3CCN(c3ncccc3Cl)C4)cc21 [Example 70, 7-(3-Chloropyridin-2-yl)-5,6,7,8-tetrahydro-N-(1,3,3-trimethylindolin-6-yl)pyrido[3,4-d]pyrimidin-4-amine] | < 0.1 | ++++ (compound exhibited 76% or greater inhibition of calcium ion influx induced by proton stimulation)
CC1(C)CNc2cc(Nc3ncnc4c3CCN(c3ncccc3Cl)C4)ccc21 [Example 69, 7-(3-Chloropyridin-2-yl)-5,6,7,8-tetrahydro-N-(3,3-dimethylindolin-6-yl)pyrido[3,4-d]pyrimidin-4-amine] | 0.101 to 0.5 | ++++ (compound exhibited 76% or greater inhibition of calcium ion influx induced by proton stimulation)
Nc1nc2c(c(Nc3ccc(C(F)(F)F)cc3)n1)CCN(c1ncccc1Cl)C2 [Example 17, 7-(3-Chloro-pyridin-2-yl)-N^4-(4-trifluoromethyl-phenyl)-5,6,7,8-tetrahydro-pyrido[3,4-d]pyrimidine-2,4-diamine] | – | ++++ (compound exhibited 76% or greater inhibition of calcium ion influx induced by proton stimulation)
Clc1cccnc1N1CCc2c(ncnc2NCCCc2ccccc2)C1 [Example 51, 7-(3-Chloropyridin-2-yl)-5,6,7,8-tetrahydro-N-(3-phenylpropyl)pyrido[3,4-d]pyrimidin-4-amine] | – | + (compound exhibited 0-25% inhibition of calcium ion influx induced by proton stimulation)
CN1CCOc2cc(Nc3ncnc4c3CCN(c3ncccc3Cl)C4)ccc21 [Example 65, 7-(3-Chloropyridin-2-yl)-5,6,7,8-tetrahydro-N-(3,4-dihydro-4-methyl-2H-benzo[b][1,4]oxazin-7-yl)pyrido[3,4-d]pyrimidin-4-amine] | 0.101 to 0.5 | +++ (compound exhibited 51-75% inhibition of calcium ion influx induced by proton stimulation)
COC(=O)COc1nc2c(c(Nc3ccc(C(F)(F)F)cc3)n1)CCN(c1ncccc1Cl)C2 [Example 66, Methyl 2-(4-(4-(trifluoromethyl)phenylamino)-7-(3-chloropyridin-2-yl)-5,6,7,8-tetrahydropyrido[3,4-d]pyrimidin-2-yloxy)acetate] | < 0.1 | ++++ (compound exhibited 76% or greater inhibition of calcium ion influx induced by proton stimulation)
Cc1cccc(N2CCc3c(ncnc3Nc3ccc4c(c3)OCCO4)C2)c1 [Example 36, (2,3-Dihydro-benzo[1,4]dioxin-6-yl)-(7-m-tolyl-5,6,7,8-tetrahydro-pyrido[3,4-d]pyrimidin-4-yl)-amine] | – | ++ (compound exhibited 26-50% inhibition of calcium ion influx induced by proton stimulation)
CS(=O)(=O)c1cccnc1N1CCc2c(ncnc2Nc2ccc(OC(F)F)cc2)C1 [Example 14, N-(4-(Difluoromethoxy)phenyl)-5,6,7,8-tetrahydro-7-(3-(methylsulfonyl)pyridin-2-yl)pyrido[3,4-d]pyrimidin-4-amine] | – | + (compound exhibited 0-25% inhibition of calcium ion influx induced by proton stimulation)
COc1cccc(Nc2ncnc3c2CCN(c2cc(C(F)(F)F)ccn2)C3)c1 [Example 72, 7-(4-(Trifluoromethyl)pyridin-2-yl)-5,6,7,8-tetrahydro-N-(3-methoxyphenyl)pyrido[3,4-d]pyrimidin-4-amine] | > 1 | + (compound exhibited 0-25% inhibition of calcium ion influx induced by proton stimulation)
CC1(C)CCNc2cc(Nc3ncnc4c3CCN(c3ncccc3Cl)C4)ccc21 [Example 59, 7-(3-chloropyridin-2-yl)-5,6,7,8-tetrahydro-N-(1,2,3,4-tetrahydro-4,4-dimethylquinolin-7-yl)pyrido[3,4-d]pyrimidin-4-amine] | 0.101 to 0.5 | –
CC(C)(C)c1ccc(Nc2ncnc3c2CCN(c2ncccc2Cl)C3)cn1 [Example 49, N-(6-tert-Butylpyridin-3-yl)-7-(3-chloropyridin-2-yl)-5,6,7,8-tetrahydropyrido[3,4-d]pyrimidin-4-amine] | – | ++++ (compound exhibited 76% or greater inhibition of calcium ion influx induced by proton stimulation)

Now from value to compound, other results behind:

IC50 [µM] | SMILES | % Inhibition @ 1 μM
< 0.1 | FC(F)(F)Oc1ccc(Nc2ncnc3c2CCN(c2ncccc2C(F)(F)F)C3)cc1 [Example 79, 7-(3-(trifluoromethyl)pyridin-2-yl)-5,6,7,8-tetrahydro-N-(4-(trifluoromethoxy)-phenyl)pyrido[3,4-d]pyrimidin-4-amine] | ++++ (compound exhibited 76% or greater inhibition of calcium ion influx induced by proton stimulation)
0.101 to 0.5 | FC(F)Oc1ccc(Nc2ncnc3c2CCN(c2ncccc2Cl)C3)cc1 [Example 15, 7-(3-Chloropyridin-2-yl)-N-(4-(difluoromethoxy)phenyl)-5,6,7,8-tetrahydropyrido[3,4-d]pyrimidin-4-amine] | +++ (compound exhibited 51-75% inhibition of calcium ion influx induced by proton stimulation)
> 1 | O=C(O)COc1nc2c(c(Nc3ccc(C(F)(F)F)cc3)n1)CCN(c1ncccc1Cl)C2 [Example 75, 2-(4-(4-(Trifluoromethyl)phenylamino)-7-(3-chloropyridin-2-yl)-5,6,7,8-tetrahydropyrido[3,4-d]pyrimidin-2-yloxy)acetic acid] | + (compound exhibited 0-25% inhibition of calcium ion influx induced by proton stimulation)
> 1 | Clc1cccnc1N1CCc2c(ncnc2Nc2ccc3c(c2)OCCO3)C1 [Example 74, 7-(3-Chloropyridin-2-yl)-5,6,7,8-tetrahydro-N-(2,3-dihydrobenzo[b][1,4]dioxin-6-yl)pyrido[3,4-d]pyrimidin-4-amine] | ++ (compound exhibited 26-50% inhibition of calcium ion influx induced by proton stimulation)
> 1 | Fc1ccc(Nc2ncnc3c2CCN(c2ncccc2Cl)C3)cc1 [Example 19, 7-(3-Chloropyridin-2-yl)-N-(4-fluorophenyl)-5,6,7,8-tetrahydropyrido[3,4-d]pyrimidin-4-amine] | + (compound exhibited 0-25% inhibition of calcium ion influx induced by proton stimulation)
> 1 | Clc1ccc(CCNc2ncnc3c2CCN(c2ncccc2Cl)C3)cc1 [Example 40, N-(4-Chlorophenethyl)-7-(3-chloropyridin-2-yl)-5,6,7,8-tetrahydropyrido[3,4-d]pyrimidin-4-amine] | +++ (compound exhibited 51-75% inhibition of calcium ion influx induced by proton stimulation)
0.101 to 0.5 | FC(F)Oc1ccc(Nc2ncnc3c2CCN(c2ncccc2C(F)(F)F)C3)cc1 [Example 77, N-(4-(difluoromethoxy)phenyl)-7-(3-(trifluoromethyl)pyridin-2-yl)-5,6,7,8-tetrahydropyrido[3,4-d]pyrimidin-4-amine] | ++++ (compound exhibited 76% or greater inhibition of calcium ion influx induced by proton stimulation)
